# Results taken from patent publication EP0946580B1, “NOVEL ERYTHROMYCIN DERIVATIVES, METHOD OF PREPARATION AND APPLICATION AS MEDICINES” (Aventis Pharma S.A., priority 1996, dated 1998).
# Experiments:
# Assay type in all cases: cell-based
# [1] = tested on: Staphylococcus aureus 011UC4; experiment: Liquid medium dilution method (MIC); details: 24 h incubation at 37°C, read-out: concentrations minimales inhibitrices (C.M.I.)
# Description: (§1) Méthode des dilutions en milieu liquide
# (§2) On a préparé une série de tubes dans lesquels on répartit une même quantité de milieu nutritif stérile. On distribue dans chaque tube des quantités croissantes du produit à étudier, puis chaque tube est ensemencé avec une souche bactérienne. Après incubation de vingt-quatre heures à l'étuve à 37°C, l'inhibition de la croissance est appréciée par transillumination de ce qui permet de déterminer les concentrations minimales inhibitrices (C.M.I.) exprimées en microgrammes/cm^3.
# [2] = tested on: Staphylococcus epidermidis 012GO11I; experiment: Liquid medium dilution method (MIC); details: 24 h incubation at 37°C, read-out: concentrations minimales inhibitrices (C.M.I.)
# Description: as §1, §2
# [3] = tested on: Streptococcus agalactiae groupe B 02B1HT1; experiment: Liquid medium dilution method (MIC); details: 24 h incubation at 37°C, read-out: concentrations minimales inhibitrices (C.M.I.)
# Description: as §1, §2
# [4] = tested on: Streptococcus agalactiae groupe B 02B1SJ1; experiment: Liquid medium dilution method (MIC); details: 24 h incubation at 37°C, read-out: concentrations minimales inhibitrices (C.M.I.)
# Description: as §1, §2
# [5] = tested on: Streptococcus faecalis groupe D 02D2UC1; experiment: Liquid medium dilution method (MIC); details: Enterococcus faecalis, 24 h incubation at 37°C, read-out: concentrations minimales inhibitrices (C.M.I.)
# Description: as §1, §2
# [6] = tested on: Streptococcus faecium groupe D 02D3HT1; experiment: Liquid medium dilution method (MIC); details: Enterococcus faecium, 24 h incubation at 37°C, read-out: concentrations minimales inhibitrices (C.M.I.)
# Description: as §1, §2
# [7] = tested on: Streptococcus mitis 02mitCB1; experiment: Liquid medium dilution method (MIC); details: 24 h incubation at 37°C, read-out: concentrations minimales inhibitrices (C.M.I.)
# Description: as §1, §2
# [8] = tested on: Streptococcus mitis 02mitGR16I; experiment: Liquid medium dilution method (MIC); details: 24 h incubation at 37°C, read-out: concentrations minimales inhibitrices (C.M.I.)
# Description: as §1, §2
# [9] = tested on: Streptococcus pneumoniae 030ROIi; experiment: Liquid medium dilution method (MIC); details: 24 h incubation at 37°C, read-out: concentrations minimales inhibitrices (C.M.I.)
# Description: as §1, §2
# [10] = tested on: Streptococcus pyogenes groupe A 02A1UC1; experiment: Liquid medium dilution method (MIC); details: 24 h incubation at 37°C, read-out: concentrations minimales inhibitrices (C.M.I.)
# Description: as §1, §2
# [11] = tested on: Streptococcus sp groupe G 02G0GR5; experiment: Liquid medium dilution method (MIC); details: 24 h incubation at 37°C, read-out: concentrations minimales inhibitrices (C.M.I.)
# Description: as §1, §2
# [12] = tested on: Haemophilus Influenzae 351HT3; experiment: Activity on gram-negative bacterial strains
# [13] = tested on: Haemophilus Influenzae 351CB12; experiment: Activity on gram-negative bacterial strains
# [14] = tested on: Haemophilus Influenzae 351CA1; experiment: Activity on gram-negative bacterial strains
# [15] = tested on: Haemophilus Influenzae 351GR6; experiment: Activity on gram-negative bacterial strains
smiles,measurement,setting,value
"CCC1OC(=O)C(C)=CC(C)C(OC2OC(C)CC(N(C)C)C2O)C(C)(OC)CC(C)C(=O)C(C)C2N(CCCCn3cnc(-c4cccnc4)c3)C(=O)OC12C [Ex. 1, 2,3-didéhydro-11,12-didéoxy-3-de[(2,6-didéoxy-3-C-méthyl-3-O-méthyl-alpha-L-ribo-hexopyranosyl)oxy]6-O-méthyl-12,11-[oxycarbonyl[[4-[4-(3-pyridinyl)-1H-imidazol-1-yl]butyl]imino]]-érythromycine]",MIC,[1],0.08 µg/mL
same,MIC,[2],0.15 µg/mL
same,MIC,[3],≤ 0.02 µg/mL
same,MIC,[4],0.08 µg/mL
same,MIC,[5],≤ 0.02 µg/mL
same,MIC,[6],≤ 0.02 µg/mL
same,MIC,[7],≤ 0.02 µg/mL
same,MIC,[8],≤ 0.02 µg/mL
same,MIC,[9],≤ 0.02 µg/mL
same,MIC,[10],≤ 0.02 µg/mL
same,MIC,[11],≤ 0.02 µg/mL
same,activité sur les souches bactériennes à gram^⊖,[12],activité intéressante
same,activité sur les souches bactériennes à gram^⊖,[13],activité intéressante
same,activité sur les souches bactériennes à gram^⊖,[14],activité intéressante
same,activité sur les souches bactériennes à gram^⊖,[15],activité intéressante
